Earlier results on one substance are cited in US7932388B2, “Isotopically enriched N-substituted piperazines and methods for the preparation thereof” (DH Technologies Development Pte. Ltd., priority 2004, dated 2011).

For the series the following is noted: alcohol (leaving group) of the trifluoroacetate ester; no method or conditions printed.

With N-hydroypyrrolidinone [NHP], the pKa (commonly the negative logarithm of the acid dissociation constant) was 9.38.
